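Five compound concentrations were applied to cells in 96-well plates for 48 hours; endpoints were derived by simple linear interpolation of the resulting dose-response curve. At the TGI there is no net growth.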
Key:
Test in all cases: DTP human tumour cell line panel, 48 h
U251 CNS = tested on: U251 CNS
TK-10 renal = tested on: TK-10 renal
LOX IMVI melanoma = tested on: LOX IMVI melanoma
SNB-75 CNS = tested on: SNB-75 CNS
CAKI-1 renal = tested on: CAKI-1 renal
PC-3 prostate = tested on: PC-3 prostate
HT29 colon = tested on: HT29 colon
COLO 205 colon = tested on: COLO 205 colon
SK-MEL-5 melanoma = tested on: SK-MEL-5 melanoma
SF-295 CNS = tested on: SF-295 CNS
M14 melanoma = tested on: M14 melanoma
HOP-92 NSCLC = tested on: HOP-92 NSCLC
HS 578T breast = tested on: HS 578T breast
SNB-19 CNS = tested on: SNB-19 CNS
UACC-62 melanoma = tested on: UACC-62 melanoma
NCI-H226 lung = tested on: NCI-H226 lung
SN12C renal = tested on: SN12C renal
786-0 renal = tested on: 786-0 renal
A498 renal = tested on: A498 renal

Row | SMILES | TGI (U251 CNS) [µM] | TGI (TK-10 renal) [µM] | TGI (LOX IMVI melanoma) [µM] | TGI (SNB-75 CNS) [µM] | TGI (CAKI-1 renal) [µM] | TGI (PC-3 prostate) [µM] | TGI (HT29 colon) [µM] | TGI (COLO 205 colon) [µM] | TGI (SK-MEL-5 melanoma) [µM] | TGI (SF-295 CNS) [µM] | TGI (M14 melanoma) [µM] | TGI (HOP-92 NSCLC) [µM] | TGI (HS 578T breast) [µM] | TGI (SNB-19 CNS) [µM] | TGI (UACC-62 melanoma) [µM] | TGI (NCI-H226 lung) [µM] | TGI (SN12C renal) [µM] | TGI (786-0 renal) [µM] | TGI (A498 renal) [µM]
1 | NCCCc1ccc2oc3ccccc3c2c1 | 33.4 | 30.4 | 39.9 | 30.6 | 29.7 | 33.1 | 26 | 32.8 | 28.5 | 33.2 | 30.1 | 43 | 47.7 | 31 | 31.9 | 35.5 | 31.9 | 28.3 | 30.2
2 | Cc1cc(C2(c3cc(C)c(O)c(C(=O)O)c3)OS(=O)(=O)c3ccccc32)cc(C(=O)O)c1O | > 100 | > 100 | > 100 | > 100 | > 100 | > 100 | > 100 | > 100 | > 100 | > 100 | > 100 | > 100 | > 100 | > 100 | > 100 | > 100 | > 100 | > 100 | > 100
3 | Cc1ccc(-n2cnc3c(N/N=C4\SCC(=O)N4c4ccccc4)ncnc32)cc1 | 16.2 | 14.3 | 10.3 |  | 18.9 | 17.8 | 15 | 17.1 | 16 | 27.6 | 13.4 | 11.3 | 26.6 | 24.4 | 17.2 | 20.4 | 11.7 | 12.1 | 27.2
4 | CC(C)(C)OC(=O)CN1CCNCCN(CC(=O)OC(C)(C)C)CC1 |  | > 100 | > 100 | 68.7 | > 100 | > 100 | > 100 | > 100 | > 100 | > 100 | > 100 | > 100 | > 100 | > 100 | > 100 | > 100 | > 100 | > 100 | > 100
5 | NC1CNC(=O)c2cscc21 (stereo not drawn) | > 100 |  | > 100 |  | > 100 | > 100 | > 100 | > 100 | > 100 | > 100 | > 100 | > 100 | > 100 | > 100 | > 100 |  | > 100 | > 100 | > 100
6 | Cc1cc(C)c(C)c(-n2[nH]c(=O)n(C)c2=O)c1C | > 100 | > 100 | > 100 |  | > 100 | > 100 | > 100 | > 100 | > 100 | > 100 | > 100 | > 100 | > 100 | > 100 | > 100 | > 100 | > 100 | > 100 | > 100
7 | CCOC(=O)C1(Cc2c[nH]c3ccccc23)C(O)CCCN1C(C)=O (stereo not drawn) | > 100 | > 100 | > 100 | > 100 | > 100 | > 100 | > 100 | > 100 | > 100 | > 100 | > 100 | > 100 | > 100 | > 100 | > 100 | > 100 |  | > 100 | > 100
8 | CC(C)CNC(=O)Cn1c2c(c3ccccc31)CCCC2 |  | > 100 | > 100 |  | > 100 | > 100 | > 100 | > 100 | > 100 | > 100 | > 100 | > 100 | > 100 | > 100 | > 100 |  | > 100 | 61.2 | 85
9 | Cn1c(COC(=O)NC2CCCCC2)c(COC(=O)NC2CCCCC2)c2ccc3cc(Cl)c(Cl)cc3c21 |  | 30.6 | 30.6 | 27.8 | 10.4 | 32.9 | 69.3 | 24.6 | 26.4 | > 100 | 36.7 | 19.5 | 23.6 | 26.1 | 24.1 | > 100 | 23.9 | 30.3 | 25.9
10 | CC(C)N1CSC(=S)N(Cc2ccccc2)C1 | > 10 | > 10 | > 10 | > 10 |  | > 10 | 6.04 | > 10 | > 10 | > 10 |  | 8.39 | > 10 | > 10 | > 10 |  | > 10 |  | > 10
11 | COc1ccc(/C=C(\NC(=O)c2ccccc2)C(=O)NN(C)c2ccnc3cc(Cl)ccc23)cc1OC | 35.4 | > 100 | 35.1 | > 100 | 90.6 | 70.2 | > 100 | 61 | 88.3 | 97.1 | 47.9 | 55.3 | > 100 | > 100 |  | 40.8 | 66.9 | 79.2 | > 100
12 | O=C1N[C@@H]([C@H](CCCCCO)OC(=O)c2ccccc2)CO1 | > 100 | > 100 | > 100 | > 100 | > 100 | > 100 | > 100 |  | > 100 | > 100 |  | > 100 | > 100 | > 100 | > 100 | > 100 | > 100 | > 100 | > 100
13 | Cc1cccc(Nc2cn(CCOc3ccccc3)c(=O)n(CCOc3ccccc3)c2=O)c1 | > 100 |  | > 100 |  | > 100 | > 100 |  | > 100 | > 100 | > 100 | > 100 | > 100 | > 100 | > 100 | > 100 |  | > 100 | > 100 | > 100
14 | CCCCCCCCCCCC1N=C(N)NC(CCCO)=C1C(=O)OC (stereo not drawn) |  | 12.5 |  | 7.44 | 27.3 | 3.93 | 3.05 |  | 6.33 | 8.59 |  | 10.7 | 3.39 |  | 21.5 | 32 | > 100 |  | 41.6

Reference: PubChem BioAssay (NCI)
